# Assay results taken from the supplement of paper PMC10307832.
# Assays:
# Test in all cases: relative viability (nuclei count vs DMSO), 5 days (fraction); higher = more cells survive
# Nelarabine = compound: COc1nc(N)nc2c1ncn2[C@@H]1O[C@H](CO)[C@@H](O)[C@@H]1O [Nelarabine]
# Procedure, shortened: (§1)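 In 1536-well plates, lung cancer cell lines rested overnight at 37 °C before five library-drug doses (not always all listed), √10 apart, were pinned onto vehicle-anchored plates. Nuclei were counted with MetaXpress from 4× Hoechst images taken after 5 days without medium change. Viability compares treated-well with vehicle-well nuclei as a median over plates, and plates needed control CV below 25% plus at least one doubling to pass.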
# Adavosertib = compound: C=CCn1c(=O)c2cnc(Nc3ccc(N4CCN(C)CC4)cc3)nc2n1-c1cccc(C(C)(C)O)n1 [Adavosertib]
# Procedure, shortened: as §1
# Adavosertib + Foretinib = compound: C=CCn1c(=O)c2cnc(Nc3ccc(N4CCN(C)CC4)cc3)nc2n1-c1cccc(C(C)(C)O)n1 [Adavosertib] + COc1cc2c(Oc3ccc(NC(=O)C4(C(=O)Nc5ccc(F)cc5)CC4)cc3F)ccnc2cc1OCCCN1CCOCC1 [Foretinib] (partner 0.25 µM)
# Procedure, shortened: (§2)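 Relative viability is defined as nuclei in treated wells over nuclei in vehicle wells. Duplicate plates were run and medians reported. Lung cancer cell lines in 1536-well plates were dosed by pin tool one day after seeding, with one drug or with a fixed anchor-drug dose plus five library-drug doses (not always all listed) in √10 steps, and nuclei were counted after 5 days.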
# Adavosertib + Navitoclax = compound: C=CCn1c(=O)c2cnc(Nc3ccc(N4CCN(C)CC4)cc3)nc2n1-c1cccc(C(C)(C)O)n1 [Adavosertib] + CC1(C)CCC(c2ccc(Cl)cc2)=C(CN2CCN(c3ccc(C(=O)NS(=O)(=O)c4ccc(N[C@H](CCN5CCOCC5)CSc5ccccc5)c(S(=O)(=O)C(F)(F)F)c4)cc3)CC2)C1 [Navitoclax] (partner 0.5 µM)
# Procedure, shortened: as §2
Cell Line,relative viability (Nelarabine; 0.01 µM),relative viability (Nelarabine; 0.1 µM),relative viability (Nelarabine; 0.3162 µM),relative viability (Nelarabine; 1 µM),relative viability (Adavosertib; 0.01 µM),relative viability (Adavosertib; 0.03162 µM),relative viability (Adavosertib; 0.1 µM),relative viability (Adavosertib; 0.3162 µM),relative viability (Adavosertib + Foretinib; first compound 0.01 µM),relative viability (Adavosertib + Foretinib; first compound 0.03162 µM),relative viability (Adavosertib + Foretinib; first compound 0.1 µM),relative viability (Adavosertib + Foretinib; first compound 0.3162 µM),relative viability (Adavosertib + Navitoclax; first compound 0.03162 µM),relative viability (Adavosertib + Navitoclax; first compound 0.1 µM),relative viability (Adavosertib + Navitoclax; first compound 0.3162 µM),relative viability (Nelarabine; 0.03162 µM),relative viability (Adavosertib + Navitoclax; first compound 0.01 µM)
LCLC-97TM1,0.939,0.971,0.95,0.878,0.955,1.02,1.11,0.71,0.847,0.906,0.994,0.881,0.372,0.473,0.257,–,–
NCI-H2405,1.07,0.924,0.982,0.947,0.924,0.993,1.02,1.04,1.05,1.06,1.1,1.13,1.01,0.98,0.996,1.02,0.869
NCI-H460,1.24,1.01,1.2,1,1.03,1.01,1.02,1.08,1.05,0.933,1.1,0.994,1.18,1.45,0.861,1.09,0.942
LK-2,1.28,0.978,1.09,1.14,0.994,1.16,1.08,1.05,1.16,1.21,1.64,1.14,0.882,0.989,0.808,–,0.98
NCI-H1703,1.3,1.06,1.06,0.953,1.29,0.892,1.08,0.249,0.399,0.43,0.335,0.203,0.877,1.11,0.157,1,1.27
LU99A,0.965,0.956,0.946,1.07,1.03,0.977,0.894,0.924,0.86,0.779,0.771,0.579,0.733,0.901,0.652,0.952,0.895
EPLC-272H,1.01,0.878,0.952,0.881,0.853,0.961,0.757,0.497,0.674,0.681,0.591,0.247,0.987,0.983,0.861,1,1.09
NCI-H2087,1.1,1.05,1.22,0.881,0.968,0.95,1.08,1.13,1.22,1.11,1.37,1.06,1.14,1.09,0.937,0.981,1.09
HCC-827,1.03,0.97,0.828,0.823,1.04,1.06,1.08,1.03,1.07,1.09,1.09,0.929,1.07,1.18,0.993,0.93,1.06
NCI-H520,1.2,1.1,0.941,1.01,0.948,0.876,1,0.879,0.784,0.81,0.743,0.703,1.1,1.09,0.791,1.02,1.12
